Patent publication US10442788B2, “Hepatitis B antiviral agents” (ENANTA PHARMACEUTICALS, INC., priority 2015, dated 2019)

Tests used:
[1] = Compound toxicity, ATPLite total ATP levels; format: cell-based; conditions: human, HepAD38 cells; 15,000 cells/well, three days after compound addition; 50% reduction of total ATP levels relative to no drug controls
Method: Methods: HepAD38 cells are maintained as previously reported (Ladner et al, Antimicrob. Agents Chemother. 1997, […], 1715). Briefly, cells are passaged upon attaining confluency in DMEM/F12 media in the presence of 10% FBS, Penn/Strep, 250 μg/mL G418, and 1 ug/ml tetracycline. Novel compounds are screened by first washing cells three times with PBS to remove tetracycline, and plating in 96 well plates at 35,000 cells/well. Compounds dissolved in DMSO are then diluted 1:200 into wells containing cells. Five days after compound addition, material is harvested for analysis. For an extended 8 day analysis, cells are plated and treated as described above, but media and compound are refreshed on d2 and d5 post initial treatment.
Compound toxicity is evaluated by seeding cells at 15,000 cells/well and treating with compound as described above. Three days after compound addition, cells are treated with ATPLite reagent and compound concentrations that reduce total ATP levels in wells by 50% relative to no drug controls (CC50) are reported; CC50 ranges are as follows: A>30 μM; B 10-30 μM; C<10 μM.

HBV = assay: HepAD38 antiviral assay: reduction of viral product accumulation (virion DNA by qPCR, HBsAg or HBeAg by ELISA); format: cell-based; conditions: Hepatitis B virus, 120 h; HepAD38 cells, five days after compound addition; 50% reduction of viral product accumulation relative to no drug controls; read-out: HepAD38 EC50
Outline: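 Tetracycline-washed HepAD38 cells treated with compound (DMSO diluted 1:200) for 5 days, or 8 days with media and compound refreshed on d2 and d5. Virion DNA from lysates quantified by qPCR; HBsAg or HBeAg by ELISA. EC50 is the concentration giving 50% reduction versus no-drug controls, reported as ranges A<1 μM, B 1-10 μM, C>10 μM.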

Row | Compound | CC50 at 3 days [1] [µM] | EC50 (HBV) [µM]
1 | O=S(=O)(c1cc(-c2nc3cc(F)c(F)cc3[nH]2)ccc1Cl)N1CCC(O)CC1 [Example 10] | > 30 | 1 to 10
2 | O=S(=O)(c1cc(-c2ncc(-c3ccccc3)[nH]2)ccc1Cl)N1CCC(O)CC1 [Example 11] | > 30 | 1 to 10
3 | O=S(=O)(c1cc(-c2ncc(-c3ccc(F)c(F)c3)[nH]2)ccc1Cl)N1CCC(O)CC1 [Example 12] | > 30 | < 1
4 | O=S(=O)(c1cc(-c2ncc(-c3ccc(F)c(Cl)c3)[nH]2)ccc1Cl)N1CCC(O)CC1 [Example 13] | 10 to 30 | < 1
5 | O=S(=O)(c1cc(-c2ncc(-c3ccc(F)c(Br)c3)[nH]2)ccc1Cl)N1CCC(O)CC1 [Example 14] | 10 to 30 | < 1
6 | O=S(=O)(c1ccc2[nH]c(-c3ccccc3)nc2c1)N1CCC(O)CC1 [Example 15] | > 30 | > 10
7 | O=S(=O)(c1cc(-c2cnc(-c3ccc(F)c(F)c3)[nH]2)ccc1Cl)N1CCC(O)CC1 [Example 16] | > 30 | 1 to 10
8 | O=S(=O)(c1cc(-c2nc(-c3ccc(Br)c(F)c3)c[nH]2)ccc1Cl)N1CCC(O)CC1 [Example 18] | 10 to 30 | < 1
9 | O=S(=O)(c1cc(-c2ncc(-c3cccs3)[nH]2)ccc1Cl)N1CCC(O)CC1 [Example 21] | > 30 | < 1
10 | N#Cc1cc(-c2cnc(-c3ccc(Cl)c(S(=O)(=O)N4CCC(O)CC4)c3)[nH]2)ccc1F [Example 22] | > 30 | < 1
11 | O=S(=O)(c1cc(-c2nnc(-c3ccc(F)c(F)c3)[nH]2)ccc1Cl)N1CCC(O)CC1 [Example 23] | 10 to 30 | 1 to 10
12 | O=S(=O)(c1cc(-c2cc(-c3ccc(F)c(Br)c3)[nH]n2)ccc1Cl)N1CCC(O)CC1 [Example 24] | < 10 | 1 to 10
13 | Cc1cc(-c2cc(-c3ccc(Cl)c(S(=O)(=O)N4CCC(O)CC4)c3)n[nH]2)ccc1F [Example 25] | 10 to 30 | 1 to 10
14 | O=S(=O)(c1cc(-c2ncc(-c3ccc(F)c(F)c3)o2)ccc1Cl)N1CCC(O)CC1 [Example 26] | > 30 | > 10
15 | N#Cc1cc(-c2cc(-c3ccc(Cl)c(S(=O)(=O)N4CCC(O)CC4)c3)n[nH]2)ccc1F [Example 27] | > 30 | 1 to 10
16 | C#Cc1cc(-c2cc(-c3ccc(Cl)c(S(=O)(=O)N4CCC(O)CC4)c3)n[nH]2)ccc1F [Example 28] | < 10 | < 1
17 | O=S(=O)(c1cc(-c2cc(-c3ccc(F)c(Cl)c3)[nH]n2)ccc1Cl)N1CCC(O)CC1 [Example 29] | < 10 | < 1
18 | O=S(=O)(c1cc(-c2nc(-c3cc(F)c(F)c(F)c3)c[nH]2)ccc1Cl)N1CCC(O)CC1 [Example 30] | 10 to 30 | 1 to 10
19 | O=C1CCN(S(=O)(=O)c2cc(-c3ncc(-c4ccc(F)c(Br)c4)[nH]3)ccc2Cl)CC1 [Example 31] | 10 to 30 | 1 to 10
20 | CC1(O)CCN(S(=O)(=O)c2cc(-c3ncc(-c4ccc(F)c(Br)c4)[nH]3)ccc2Cl)CC1 [Example 32] | 10 to 30 | 1 to 10
21 | O=S(=O)(c1cc(-c2nc(-c3ccccn3)c[nH]2)ccc1Cl)N1CCC(O)CC1 [Example 33] | 10 to 30 | > 10
22 | CC(=O)OC1CCN(S(=O)(=O)c2cc(-c3nc(-c4ccc(F)c(Br)c4)c[nH]3)ccc2Cl)CC1 [Example 35] | 10 to 30 | 1 to 10
23 | COC(=O)[C@@H]1CCCN1S(=O)(=O)c1cc(-c2ncc(-c3ccc(F)c(Br)c3)[nH]2)ccc1Cl [Example 36] | > 30 | > 10
24 | O=S(=O)(c1cc(-c2ncc(-c3ccc(F)c(Br)c3)[nH]2)ccc1Cl)N1CCCCC1 [Example 37] | < 10 | < 1

Row | Compound | CC50 at 3 days [1] [µM] | EC50 (HBV) [µM]
25 | O=S(=O)(NCCO)c1cc(-c2ncc(-c3ccc(F)c(Br)c3)[nH]2)ccc1Cl [Example 38] | 10 to 30 | < 1
26 | COC1CCN(S(=O)(=O)c2cc(-c3ncc(-c4ccc(F)c(Br)c4)[nH]3)ccc2Cl)CC1 [Example 39] | 10 to 30 | < 1
27 | O=S(=O)(c1cc(-c2nc(-c3ccc(F)cc3)c[nH]2)ccc1Cl)N1CCC(O)CC1 [Example 40] | > 30 | 1 to 10
28 | CC(C)OC(=O)[C@@H](C)NS(=O)(=O)c1cc(-c2ncc(-c3ccc(F)c(Br)c3)[nH]2)ccc1Cl [Example 41] | > 30 | 1 to 10
29 | O=S(=O)(c1cc(-c2ncc(-c3ccc(F)c(Br)c3)[nH]2)ccc1Cl)N1CCOCC1 [Example 42] | 10 to 30 | < 1
30 | O=S(=O)(NCCCO)c1cc(-c2ncc(-c3ccc(F)c(Br)c3)[nH]2)ccc1Cl [Example 43] | 10 to 30 | < 1
31 | O=S(=O)(c1cc(-c2ncc(-c3ccc(F)c(Br)c3)[nH]2)ccc1Cl)N1CCC(F)CC1 [Example 44] | < 10 | < 1
32 | Cc1cc(-c2cnc(-c3ccc(Cl)c(S(=O)(=O)N4CCC(O)CC4)c3)[nH]2)ccc1F [Example 45] | > 30 | < 1
33 | COc1cc(-c2cnc(-c3ccc(Cl)c(S(=O)(=O)N4CCC(O)CC4)c3)[nH]2)ccc1F [Example 46] | > 30 | < 1
34 | N#Cc1ccc(-c2cnc(-c3ccc(Cl)c(S(=O)(=O)N4CCC(O)CC4)c3)[nH]2)cc1F [Example 47] | > 30 | < 1
35 | O=S(=O)(c1cc(-c2ncc(-c3ccc(F)c(C4CC4)c3)[nH]2)ccc1Cl)N1CCC(O)CC1 [Example 48] | 10 to 30 | < 1
36 | O=S(=O)(c1cc(-c2ncc(-c3cccc(F)c3)[nH]2)ccc1Cl)N1CCC(O)CC1 [Example 49] | 10 to 30 | < 1
37 | O=S(=O)(c1cc(-c2ncc(-c3cccnc3)[nH]2)ccc1Cl)N1CCC(O)CC1 [Example 50] | > 30 | 1 to 10
38 | O=S(=O)(c1cc(-c2nc(-c3ccncc3)c[nH]2)ccc1Cl)N1CCC(O)CC1 [Example 51] | > 30 | > 10
39 | O=S(=O)(c1cc(-c2nc(-c3ccc(Cl)cc3)c[nH]2)ccc1Cl)N1CCC(O)CC1 [Example 52] | 10 to 30 | < 1
40 | O=S(=O)(c1cc(-c2nc(-c3cccc(Cl)c3)c[nH]2)ccc1Cl)N1CCC(O)CC1 [Example 53] | 10 to 30 | < 1
41 | O=S(=O)(c1cc(-c2nc(-c3cccc(Br)c3)c[nH]2)ccc1Cl)N1CCC(O)CC1 [Example 54] | > 30 | < 1
42 | O=S(=O)(c1cc(-c2nc(-c3ccc(F)c(C(F)(F)F)c3)c[nH]2)ccc1Cl)N1CCC(O)CC1 [Example 55] | 10 to 30 | < 1
43 | CC(C)(C)OC(=O)NCCCNS(=O)(=O)c1cc(-c2ncc(-c3ccc(F)c(Br)c3)[nH]2)ccc1Cl [Example 56] | < 10 | < 1
44 | CN(C)S(=O)(=O)c1cc(-c2ncc(-c3ccc(F)c(Br)c3)[nH]2)ccc1Cl [Example 57] | 10 to 30 | 1 to 10
45 | COC(=O)[C@H]1CCN(S(=O)(=O)c2cc(-c3ncc(-c4ccc(F)c(Br)c4)[nH]3)ccc2Cl)C1 [Example 58] | > 30 | 1 to 10
46 | O=C1CCN(S(=O)(=O)c2cc(-c3nc(-c4ccc(Br)c(F)c4)c[nH]3)ccc2Cl)CC1 [Example 59] | 10 to 30 | < 1
47 | COC(=O)[C@@H](NS(=O)(=O)c1cc(-c2ncc(-c3ccc(F)c(Br)c3)[nH]2)ccc1Cl)C(C)C [Example 60] | 10 to 30 | 1 to 10
